Measured values: ChEMBL document CHEMBL6078710, “Design, synthesis and biological evaluation of new SIRT3 activators for the treatment of triple-negative breast cancer” (Bioorg Med Chem, 2025)

Tests used:
BT-549 = test: Antiproliferative activity against human BT-549 cells assessed as inhibition of cell proliferation by MTT assay
MDA-MB-231 = test: Antiproliferative activity against human MDA-MB-231 cells assessed as inhibition of cell proliferation by MTT assay
[1] = biological target: T1, NAD-dependent protein deacetylase sirtuin-3, mitochondrial (Homo sapiens, UniProt Q9NTG7); test: Activation of SIRT3 (unknown origin)
T1 sequence (Q9NTG7 whole entry): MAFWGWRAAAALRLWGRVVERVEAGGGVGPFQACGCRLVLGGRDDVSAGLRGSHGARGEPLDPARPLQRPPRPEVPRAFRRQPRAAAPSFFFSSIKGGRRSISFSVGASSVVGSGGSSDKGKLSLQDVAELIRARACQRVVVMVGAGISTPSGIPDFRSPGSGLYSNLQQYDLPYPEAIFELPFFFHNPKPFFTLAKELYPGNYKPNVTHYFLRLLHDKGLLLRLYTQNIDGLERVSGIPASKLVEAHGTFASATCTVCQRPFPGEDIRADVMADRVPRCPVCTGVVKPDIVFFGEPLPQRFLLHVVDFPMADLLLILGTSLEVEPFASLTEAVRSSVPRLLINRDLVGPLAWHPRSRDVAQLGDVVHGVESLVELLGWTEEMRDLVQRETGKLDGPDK

SMILES	IC50 (BT-549)	IC50 (MDA-MB-231)	EC50 [1]
CCOC(=O)C1=CN(C(=O)c2cc(OC)c(OC)c(OC)c2)C=C(C(=O)OCC)C1c1ccccc1	4.79 µM	5.23 µM	
CCOC(=O)C1=CN(C(=O)c2ccc(OC)c(OC)c2)C=C(C(=O)OCC)C1c1ccc(S(C)(=O)=O)cc1	11.9 µM	15.2 µM	
CC(C)C[C@@H]1NC(=O)CCN2C(=O)CC3(CC(C)(C)C(=O)N3S(=O)(=O)c3cccc(c3)C(=O)OCCOC(=O)[C@H](Cc3ccccc3)NC1=O)C2=O (some centres undefined)			29.4 µM
CCOC(=O)C1=CN(C(=O)c2cc(OC)c(OC)c(OC)c2)C=C(C(=O)OCC)C1c1cnc(Cl)c(Cl)c1	2.77 µM	5.78 µM	
CCOC(=O)C1=CN(C(=O)c2cc(OC)c(OC)c(OC)c2)C=C(C(=O)OCC)C1c1ccc(S(C)(=O)=O)cc1	8.21 µM	14.2 µM	
